The text below walks through data of patent publication US8288371B2, “Ortho pyrrolidine, benzyl-substituted heterocycle CCR1 antagonists for autoimmune diseases and inflammation” (Pharmacopeia, LLC, priority 2007, dated 2012).

SMILES strings stand for the structures. A value given as a limit tells only on which side of the number the result lay.

Broadly, the IC50 is the concentration that gives 50% inhibition.

For this assay, the target named is T1, human CCR1 (Homo sapiens, UniProt P32246).
T1 sequence (P32246 1-355): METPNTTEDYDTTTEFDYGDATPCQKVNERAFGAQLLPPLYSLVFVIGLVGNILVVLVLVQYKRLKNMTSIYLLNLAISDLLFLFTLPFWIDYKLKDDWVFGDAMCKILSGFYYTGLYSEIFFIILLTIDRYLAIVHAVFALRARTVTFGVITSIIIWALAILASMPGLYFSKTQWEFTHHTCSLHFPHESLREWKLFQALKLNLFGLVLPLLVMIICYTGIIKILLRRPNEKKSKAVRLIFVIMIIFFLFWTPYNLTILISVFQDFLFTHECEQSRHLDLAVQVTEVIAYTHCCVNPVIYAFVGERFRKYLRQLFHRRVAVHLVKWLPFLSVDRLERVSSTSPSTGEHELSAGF
The assay can be described thus: CCR1 binding protocol (SPA, [125I]-MIP-1α displacement). Conditions: cell membrane expressing human CCR1, 0.1 nM [125I]-MIP-1α, 4 hours at ambient temperature; read-out: Relative potency (IC50). A digest of the protocol:
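Human CCR1 membranes (0.5 μg/well) on SPA beads were incubated with compound and 0.1 nM [125I]-MIP-1α (final) for 4 h at ambient temperature. Buffer was Tris pH 7.4 with NaCl, KCl, MnCl and 0.1% BSA. IC50 came from ½-log compound dilutions (10 mM top DMSO stock) by displacement of bound radioligand.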
`Cc1ncc(Cc2ccc(Cl)cc2)c([C@H]2CCCN2C(=O)Nc2ccc3c(c2)N(C)C(=O)CO3)n1` [Compound 27]: the IC50 fell in the range of 500 to 5000 nM.

In the case of `Cc1cc(NC(=O)N2CCC[C@@H]2c2nnc(C)n2Cc2ccc(Cl)cc2)c(F)cc1Cl` [Compound 426], the IC50 is less than 50 nM. For the molecule `Cc1nnc([C@H]2CCCN2C(=O)C[C@H](C)c2ccccc2)n1Cc1ccc(Cl)cc1` [Compound 479], the IC50 was 50 to 500 nM. Consider `Cc1nnc([C@H]2C[C@H](O)CN2C(=O)N[C@H]2CCOc3cc(C#N)ccc32)n1Cc1ccc(Cl)cc1` [Compound 523], for which the concentration for half-maximal inhibition (IC50) was less than 50 nM. For the molecule `Cc1nnc([C@H]2CCCN2C(=O)N[C@H]2CCOc3cc(C(F)(F)F)ccc32)n1C1(c2ccc(Cl)cc2)CC1` [Compound 328], the IC50 lay in the range of 50 to 500 nM. Regarding `Cc1cc(Cl)cc(C)c1NC(=O)N1CCC[C@@H]1c1nccn1Cc1ccc(Cl)cc1` [Compound 33], the IC50 was less than 50 nM. Consider `CC[C@H](N/C(=N/C#N)N1CCC[C@@H]1c1nnc(C)n1Cc1ccc(Cl)cc1)c1cc2ccccc2o1` [Compound 196], for which the IC50 is less than 50 nM. `CCc1nnc([C@H]2CCCN2C(=O)NCc2ccc(C(F)(F)F)cc2)n1Cc1ccc(Cl)cc1` [Compound 311]: the IC50 fell in the range of 50 to 500 nM.

Consider `Cc1nc(C(F)(F)F)nc(C)c1NC(=O)N1CCC[C@@H]1c1nnc(C)n1Cc1ccc(Cl)cc1` [Compound 466], for which the IC50 is less than 50 nM.

Consider `O=C(NC1(c2ccc(C(F)(F)F)cc2)CC1)N1CCC[C@@H]1c1ncnn1Cc1ccc(Cl)cc1` [Compound 98], for which the IC50 lay within 50 to 500 nM.

`Cc1nnc([C@H]2CCCN2C(=O)Nc2ccc(C(C)(C)C)cc2)n1Cc1ccc(Cl)cc1` [Compound 133]: the IC50 was less than 50 nM. For the molecule `Cc1cc(NC(=O)N2CCC[C@@H]2c2nnc(C)n2Cc2ccc(Cl)cc2)nc(C)n1` [Compound 256], the IC50 lay in the range of 500 to 5000 nM. With `O=C(N[C@H]1CCOc2cc(C(F)(F)F)ccc21)N1CCC[C@@H]1c1ncnn1Cc1ccc(Cl)cc1` [Compound 57], the IC50 is less than 50 nM. For the molecule `O=C(Nc1ccc(C(F)(F)F)cc1)N1CCC[C@@H]1c1ncncc1Cc1ccc(Cl)cc1` [Compound 23], the IC50 is 50 to 500 nM. Take `Cc1ccc(S(C)(=O)=O)c(C)c1NC(=O)N1CCC[C@@H]1c1nnc(C)n1Cc1ccc(Cl)cc1` [Compound 406]: the IC50 was less than 50 nM. As for `CC[C@H](NC(=O)N1CCC[C@@H]1c1ncnn1Cc1ccc(Cl)cc1)c1c(C)cc(C(F)(F)F)cc1C` [Compound 90], the IC50 is 50 to 500 nM.

As for `CCc1noc(C)c1NC(=O)N1CCC[C@@H]1c1nnc(C)n1Cc1ccc(Cl)cc1` [Compound 290], the IC50 was less than 50 nM. The value for `O=C(Nc1ccc(SC(F)(F)F)cc1)N1CCC[C@@H]1c1ncnn1Cc1ccc(Cl)cc1` [Compound 74] was 50 to 500 nM; that for `Cc1cc(C#N)ccc1NC(=O)N1CC(F)C[C@@H]1c1nnc(C)n1Cc1ccc(Cl)cc1` (some centres unmarked) [Compound 581] was 50 to 500 nM.

In the case of `Cc1nnc([C@H]2CCCN2C(=O)NCc2ccc(C(F)(F)F)cc2)n1Cc1ccc(Cl)cc1` [Compound 130], the IC50 was less than 50 nM.

For `Cc1nnc([C@H]2CCCN2C(=O)NC2CCCc3cccc(Cl)c32)n1Cc1ccc(Cl)cc1` (some centres unmarked) [Compound 267], the IC50 was in the range of 50 to 500 nM.

Take `Cc1nnc([C@H]2CCCN2C(=O)Nc2cnc(C(F)(F)F)nc2)n1Cc1ccc(Cl)cc1` [Compound 453]: the IC50 was 50 to 500 nM. For `CC1(C)CC(NC(=O)N2CCC[C@@H]2c2nnnn2Cc2ccc(Cl)cc2)c2ccccc2O1` (some centres unmarked) [Compound 49], the IC50 is 50 to 500 nM. In the case of `Cc1nnc([C@H]2CCCN2C(=O)N[C@H]2CCOc3cc(C(F)(F)F)ccc32)n1Cc1cccc(Br)c1` [Compound 540], the IC50 lay within 500 to 5000 nM. `Cc1nnc([C@H]2CCCN2C(=O)N[C@H]2CCOc3cc(C#N)ccc32)n1Cc1ccc(Cl)cc1` [Compound 207]: the IC50 is less than 50 nM. The value for `Cc1nnc([C@H]2CCCN2c2c(N[C@H]3CCOc4cc(C(F)(F)F)ccc43)c(=O)c2=O)n1Cc1ccc(Cl)cc1` [Compound 530] was 50 to 500 nM. As for `O=C(N[C@H]1CCOc2cc(C(F)(F)F)ccc21)N1CCC[C@@H]1c1oncc1Cc1ccc(Cl)cc1` [Compound 4], the IC50 lay within 50 to 500 nM. The value for `Cc1nnc([C@H]2CCCN2C(=O)Oc2ccc(Cl)cc2)n1Cc1ccc(Cl)cc1` [Compound 175] was 500 to 5000 nM.

Regarding `Cc1nnc([C@H]2CCCN2C(=O)Nc2cc(C(N)=O)ccc2Cl)n1Cc1ccc(Cl)cc1` [Compound 332], the IC50 lay in the range of 50 to 500 nM. For the molecule `Cc1noc(-c2ccccc2)c1NC(=O)N1CCC[C@@H]1c1ncnn1Cc1ccc(Cl)cc1` [Compound 60], the IC50 is less than 50 nM. As to `Cc1nc(C(F)(F)F)ccc1NC(=O)N1CC(F)C[C@@H]1c1nnc(C)n1Cc1ccc(Cl)cc1` (some centres unmarked) [Compound 580], the IC50 is less than 50 nM.

Turning to `Cc1nnc([C@H]2CCCN2C(=O)Nc2ccc(S(N)(=O)=O)cc2)n1Cc1ccc(Cl)cc1` [Compound 355], the IC50 lay in the range of 500 to 5000 nM. With `O=C(Nc1ccc2occc2c1)N1CCC[C@@H]1c1ncnn1Cc1ccc(Cl)cc1` [Compound 91] the figure was 50 to 500 nM; with `O=C(Nc1ccc2nonc2c1)N1CCC[C@@H]1c1ncnn1Cc1ccc(Cl)cc1` [Compound 71], 50 to 500 nM.

Take `Cc1onc(-c2ccccc2F)c1NC(=O)N1CCC[C@@H]1c1nnc(C)n1Cc1ccc(Cl)cc1` [Compound 291]: the IC50 is less than 50 nM. The value for `Cc1nnc([C@H]2CCCN2/C(=N\C#N)N[C@H]2CCOc3cc(C#N)ccc32)n1Cc1ccc(Cl)cc1` [Compound 345] was 50 to 500 nM; that for `O=C(N[C@H]1CCOc2cc(C(F)(F)F)ccc21)N1CCC[C@@H]1c1nnc(C(F)(F)F)n1Cc1ccc(Cl)cc1` [Compound 235] was 50 to 500 nM; that for `Cc1nnc([C@H]2CCCN2C(=O)Nc2ccc(Cl)cc2F)n1[C@H](C)c1ccc(Cl)cc1` [Compound 349] was 50 to 500 nM.

For the molecule `N#C/N=C(\NC1(c2ccccc2)CC1)N1CCC[C@@H]1c1nnc(CO)n1Cc1ccc(Cl)cc1` [Compound 374], the IC50 lay within 500 to 5000 nM. The value for `O=C(Nc1ccc(C(F)(F)F)cc1)N1CCC[C@@H]1c1oncc1Cc1ccc(Cl)cc1` [Compound 5] was 50 to 500 nM; that for `Cc1onc(-c2ccccc2)c1NC(=O)N1CCC[C@@H]1c1nccn1Cc1ccc(Cl)cc1` [Compound 35] was less than 50 nM. Regarding `Cc1nnc([C@H]2C[C@@H](O)CN2C(=O)Nc2ccc(C(F)(F)F)nc2Cl)n1Cc1ccc(Cl)cc1` [Compound 494], the IC50 fell in the range of 50 to 500 nM. Regarding `O=C(NC1CCCOc2ccccc21)N1CCC[C@@H]1c1nccn1Cc1ccc(Cl)cc1` (some centres unmarked) [Compound 32], the IC50 was less than 50 nM. With `Cc1nnc([C@H]2CCCN2C(=O)Nc2cc(-c3ccccc3)nn2C)n1Cc1ccc(Cl)cc1` [Compound 356], the IC50 is less than 50 nM. As to `Cc1nnc([C@H]2C[C@H](O)CN2C(=O)NCc2ccc(Cl)cc2Cl)n1Cc1ccc(Cl)cc1` [Compound 470], the IC50 was less than 50 nM. Consider `Cn1ncc(Cc2ccc(Cl)cc2)c1[C@H]1CCCN1C(=O)Nc1ccc(C(F)(F)F)cc1` [Compound 11], for which the IC50 lay within 500 to 5000 nM. Regarding `Cc1nnc([C@H]2C[C@@H](O)CN2C(=O)NC(c2ccccc2)c2ccccc2)n1Cc1ccc(Cl)cc1` [Compound 389], the IC50 was 50 to 500 nM. The value for `CC[C@H](NC(=O)N1CCC[C@@H]1c1nnc(C)n1Cc1ccc(Br)cc1)c1ccc(C(F)(F)F)cc1` [Compound 578] was less than 50 nM. With `CC[C@H](N/C(=C/[N+](=O)[O-])N1CCC[C@@H]1c1nnc(C)n1Cc1ccc(Cl)cc1)c1ccc(C(F)(F)F)nc1` [Compound 614], the IC50 was less than 50 nM.

Regarding `Cc1noc(C)c1NC(=O)N1C[C@@H](O)C[C@@H]1c1nnc(C)n1Cc1ccc(Cl)cc1` [Compound 445], the IC50 was in the range of 50 to 500 nM. Consider `Cc1ccc2c(c1)CCCC2NC(=O)N1CCC[C@@H]1c1nnc(C)n1Cc1ccc(Cl)cc1` (some centres unmarked) [Compound 269], for which the IC50 lay within 50 to 500 nM. Take `Cc1nnc([C@H]2CCCN2C(=O)NC(c2ccccc2)c2ccc(Cl)cc2)n1Cc1ccc(Cl)cc1` (some centres unmarked) [Compound 129]: the IC50 is less than 50 nM. With `COCc1nnc([C@H]2CCCN2C(=O)Nc2ccc(Cl)cc2F)n1Cc1ccc(Cl)cc1` [Compound 465], the IC50 fell in the range of 500 to 5000 nM. The value for `CC(C)(NC(=O)N1CCC[C@@H]1c1ncncc1Cc1ccc(Cl)cc1)c1ccccc1` [Compound 28] was 500 to 5000 nM. As to `Cc1nnc([C@H]2CCCN2C(=O)Nc2ccc(S(=O)(=O)O)cc2Cl)n1Cc1ccc(Cl)cc1` [Compound 456], the IC50 was in the range of 50 to 500 nM.

Turning to `COC1C[C@H](c2nnc(C)n2Cc2ccc(Cl)cc2)N(C(=O)N[C@H]2CCOc3cc(C(F)(F)F)ccc32)C1` (some centres unmarked) [Compound 543], the IC50 lay in the range of 50 to 500 nM. On to `Cc1nnc([C@H]2CCCN2C(=O)NC(C)c2cccnc2)n1Cc1ccc(Cl)cc1` (some centres unmarked) [Compound 139], for which the IC50 was 50 to 500 nM.

Turning to `Cc1nnc([C@H]2CCCN2/C(=N/C#N)NCc2ccc(C(F)(F)F)cc2)n1Cc1ccc(Cl)cc1` [Compound 377], the IC50 fell in the range of 50 to 500 nM. Turning to `Cc1nnc([C@H]2CCCN2C(=O)N[C@H]2COCc3c(F)cccc32)n1Cc1ccc(Cl)cc1` [Compound 138], the IC50 was 50 to 500 nM. `Cc1nnc([C@H]2CCCN2C(=O)Nc2ccc(S(N)(=O)=O)cc2Cl)n1Cc1ccc(Cl)cc1` [Compound 486]: the IC50 was less than 50 nM.

With `Cc1nnc([C@H]2CCCN2C(=O)Nc2ccc(Cl)cc2)n1Cc1ccc(Cl)cc1` [Compound 160], the IC50 is 50 to 500 nM. Take `Cc1nnc([C@H]2CCCN2C(=O)Nc2ccc(C(F)(F)F)nc2Cl)n1Cc1ccc(Cl)cc1` [Compound 524]: the IC50 was less than 50 nM.
